From patent US12378231B2, “Small molecules as monoacylglycerol lipase (MAGL) inhibitors, compositions and use thereof” (APOGEE PHARMACEUTICALS, INC., priority 2023, dated 2025)

Tests used:
human recombinant MAGL = human recombinant MAGL (Homo sapiens (Human), UniProt Q99685); experiment: In vitro inhibition of human recombinant MAGL activity (Cayman inhibitor screening kit, 4-nitrophenylacetate hydrolysis); format: biochemical; details: human recombinant MAGL; read-out: Inhibition on MAGL activity (IC50)
Chain of human recombinant MAGL (Q99685 whole entry): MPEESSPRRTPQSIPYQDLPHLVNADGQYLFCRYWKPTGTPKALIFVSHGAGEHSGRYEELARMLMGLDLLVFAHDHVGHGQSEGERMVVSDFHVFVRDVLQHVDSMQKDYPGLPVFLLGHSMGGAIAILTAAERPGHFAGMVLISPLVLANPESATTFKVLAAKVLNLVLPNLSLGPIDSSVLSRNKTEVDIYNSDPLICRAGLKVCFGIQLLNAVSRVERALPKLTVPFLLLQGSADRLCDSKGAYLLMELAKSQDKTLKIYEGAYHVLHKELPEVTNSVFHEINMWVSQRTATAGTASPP
Excerpt: The inhibitory effect of the synthetic chemicals on activity of human recombinant MAGL was studied using commercial inhibitor screening kit (Cayman Chemical). […] The absorbance of the yellow product can be analyzed using the plate reader. […]

human recombinant FAAH = human recombinant FAAH (Homo sapiens (Human), UniProt O00519); experiment: In vitro inhibition of human recombinant FAAH activity (Cayman FAAH inhibitor screening kit, AMC arachidonoyl amide hydrolysis); format: biochemical
Chain of human recombinant FAAH (O00519 whole entry): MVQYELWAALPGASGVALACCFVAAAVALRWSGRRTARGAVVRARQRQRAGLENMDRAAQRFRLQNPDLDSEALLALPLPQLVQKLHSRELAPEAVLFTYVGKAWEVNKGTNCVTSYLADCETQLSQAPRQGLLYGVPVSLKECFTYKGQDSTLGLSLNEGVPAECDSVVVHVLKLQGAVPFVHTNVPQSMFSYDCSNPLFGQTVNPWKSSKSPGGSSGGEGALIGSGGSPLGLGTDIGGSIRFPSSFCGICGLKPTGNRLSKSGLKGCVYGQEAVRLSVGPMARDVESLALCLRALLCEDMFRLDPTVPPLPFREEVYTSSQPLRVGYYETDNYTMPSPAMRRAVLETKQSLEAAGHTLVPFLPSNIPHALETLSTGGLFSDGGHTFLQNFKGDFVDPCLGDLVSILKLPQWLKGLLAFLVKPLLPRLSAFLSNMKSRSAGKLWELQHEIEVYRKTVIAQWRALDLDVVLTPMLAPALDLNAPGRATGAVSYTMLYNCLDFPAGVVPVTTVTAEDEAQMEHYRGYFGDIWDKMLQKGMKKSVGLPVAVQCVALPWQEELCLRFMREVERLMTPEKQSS
Excerpt: In brief, FAAH hydrolyzes AMC arachidonoyl amide resulting in the release of the fluorescent product, while the inhibitor will inhibit the FAAH activity and thus reduce the fluorescent signal.

| Compound | IC50 (human recombinant MAGL) [nM] | IC50 (human recombinant FAAH) [nM] |
| --- | --- | --- |
| N#Cc1ccc(C(c2ccc(C#N)cc2)N2CCN(C(=O)n3cnc(C#N)n3)CC2)cc1 [Example 102, 4,4′-((4-(3-cyano-1H-1,2,4-triazole-1-carbonyl)piperazin-1-yl)methylene)dibenzonitrile] | 1 to 10 | 1000 to 10000 |
| N#Cc1ncn(C(=O)N2CCN(C(c3ccc(-n4cccn4)cc3)c3ccc(-n4cccn4)cc3)CC2)n1 [Example 116, 1-(4-(bis(4-(1H-pyrazol-1-yl)phenyl)methyl)piperazine-1-carbonyl)-1H-1,2,4-triazole-3-carbonitrile] | 1 to 10 | 10000 to 50000 |
| C=COc1ccc(N(c2ccc(F)cc2)C2CCN(C(=O)n3nnc4cc(C#N)ccc43)CC2)cc1 [Example 77, 1-(4-((4-fluorophenyl)(4-(vinyloxy)phenyl)amino)piperidine-1-carbonyl)-1H-benzo[d][1,2,3]triazole-5-carbonitrile] | 1 to 10 | 100 to 1000 |
| COc1ccc(N(c2ccc(F)cc2)C2CCN(C(=O)n3nnc4ccc(C#N)cc43)CC2)cc1 [Example 65, 1-(4-((4-fluorophenyl)(4-methoxyphenyl)amino)piperidine-1-carbonyl)-1H-benzo[d][1,2,3]triazole-6-carbonitrile] | 1 to 10 | 100 to 1000 |
| N#Cc1ncn(C(=O)N2CCN(C(c3ccc4c(c3)COCO4)c3ccc4c(c3)COCO4)CC2)n1 [Example 36, 1-(4-(bis(4H-benzo[d][1,3]dioxin-6-yl)methyl)piperazine-1-carbonyl)-1H-1,2,4-triazole-3-carbonitrile] | 10 to 100 | > 10000 |
| N#Cc1ccc2nnn(C(=O)N3CCN(C(c4ccc5c(c4)OC(F)(F)O5)c4ccc5c(c4)OC(F)(F)O5)CC3)c2c1 [Example 98, 1-(4-(bis(2,2-difluorobenzo[d][1,3]dioxol-5-yl)methyl)piperazine-1-carbonyl)-1H-benzo[d][1,2,3]triazole-6-carbonitrile] | 1 to 10 | > 50000 |
| O=C(ON1C(=O)CCC1=O)N1CCN(C(c2ccc3c(c2)COCO3)c2ccc3c(c2)COCO3)CC1 [Example 6, 2,5-dioxopyrrolidin-1-yl 4-(bis(4H-benzo[d][1,3]dioxin-6-yl)methyl)piperazine-1-carboxylate] | > 100 | > 50000 |
| N#Cc1ncn(C(=O)N2CC3(C2)CN(C(c2ccc4c(c2)COCO4)c2ccc4c(c2)COCO4)C3)n1 [Example 80, 1-(6-(bis(4H-benzo[d][1,3]dioxin-6-yl)methyl)-2,6-diazaspiro[3.3]heptane-2-carbonyl)-1H-1,2,4-triazole-3-carbonitrile] | 10 to 100 | 10000 to 50000 |
| COc1ccc(C(c2ccc(OC)nc2)N2CCN(C(=O)n3cnc(C#N)n3)CC2)cn1 [Example 114, 1-(4-(bis(6-methoxypyridin-3-yl)methyl)piperazine-1-carbonyl)-1H-1,2,4-triazole-3-carbonitrile] | 1 to 10 | ~10000 |
| CC(C)=NOC(=O)N1CCN(C(c2ccc3c(c2)COCO3)c2ccc3c(c2)COCO3)CC1 [Example 30, propan-2-one O-(4-(bis(4H-benzo[d][1,3]dioxin-6-yl)methyl)piperazine-1-carbonyl) oxime] | > 10000 | > 50000 |
| O=C(N1CCN(C(c2ccc3c(c2)COCO3)c2ccc3c(c2)COCO3)CC1)n1ncc2ccccc21 [Example 35, (4-(bis(4H-benzo[d][1,3]dioxin-6-yl)methyl)piperazin-1-yl)(1H-indazol-1-yl)methanone] | > 100 | > 50000 |
| N#Cc1ccc(C(c2ccc(C#N)cc2)N2CCN(C(=O)n3nnc4cc(C#N)ccc43)CC2)cc1 [Example 101, 4,4′-((4-(5-cyano-1H-benzo[d][1,2,3]triazole-1-carbonyl)piperazin-1-yl)methylene)dibenzonitrile] | 1 to 10 | > 50000 |
| O=C(Oc1c(F)c(F)c(F)c(F)c1F)C1CCN(C(c2ccc3c(c2)COCO3)c2ccc3c(c2)COCO3)CC1 [Example 54, pentafluorophenyl 1-(bis(4H-benzo[d][1,3]dioxin-6-yl)methyl)piperidine-4-carboxylate] | > 100 | > 50000 |
| O=C(Oc1ccc(F)cc1)N1CCN(C(c2ccc3c(c2)COCO3)c2ccc3c(c2)COCO3)CC1 [Example 5, 4-fluorophenyl 4-(bis(4H-benzo[d][1,3]dioxin-6-yl)methyl)piperazine-1-carboxylate] | > 100 | > 50000 |
| O=C(N1CCCCC1)N1CCN(C(c2ccc3c(c2)COCO3)c2ccc3c(c2)COCO3)CC1 [Example 17, (4-(bis(4H-benzo[d][1,3]dioxin-6-yl)methyl)piperazin-1-yl)(piperidin-1-yl)methanone] | > 100 | > 50000 |
| COc1ccc(N(c2ccc3c(c2)OCO3)C2CCN(C(=O)n3nnc4cc(C#N)ccc43)CC2)cc1 [Example 73, 1-(4-(benzo[d][1,3]dioxol-5-yl(4-methoxyphenyl)amino)piperidine-1-carbonyl)-1H-benzo[d][1,2,3]triazole-5-carbonitrile] | 1 to 10 | 100 to 1000 |
| N#Cc1ncn(C(=O)N2CC3(CCN(C(c4ccc5c(c4)COCO5)c4ccc5c(c4)COCO5)CC3)C2)n1 [Example 82, 1-(7-(bis(4H-benzo[d][1,3]dioxin-6-yl)methyl)-2,7-diazaspiro[3.5]nonane-2-carbonyl)-1H-1,2,4-triazole-3-carbonitrile] | 10 to 100 | > 50000 |
| N#Cc1ccc2c(c1)nnn2C(=O)N1CCN(C(c2ccc3c(c2)OC(F)(F)O3)c2ccc3c(c2)OC(F)(F)O3)CC1 [Example 99, 1-(4-(bis(2,2-difluorobenzo[d][1,3]dioxol-5-yl)methyl)piperazine-1-carbonyl)-1H-benzo[d][1,2,3]triazole-5-carbonitrile] | 1 to 10 | > 50000 |
| N#Cc1ncn(C(=O)N2CCN(C(c3ccc4occc4c3)c3ccc4occc4c3)CC2)n1 [Example 117, 1-(4-(di(benzofuran-5-yl)methyl)piperazine-1-carbonyl)-1H-1,2,4-triazole-3-carbonitrile] | 1 to 10 | 100 to 1000 |
| 1-(4-(di(pyridin-3-yl)methyl)piperazine-1-carbonyl)-1H-benzo[d][1,2,3]triazole-6-carbonitrile and 1-(4-(di(pyridin-3-yl)methyl)piperazine-1-carbonyl)-1H-benzo[d][1,2,3]triazole-5-carbonitrile [Example 105] | 10 to 1000 | > 10000 |
| N#Cc1ncn(C(=O)N2CC3CN(C(c4ccc5c(c4)COCO5)c4ccc5c(c4)COCO5)CC3C2)n1 (stereo not drawn) [Example 81, meso-1-(5-(bis(4H-benzo[d][1,3]dioxin-6-yl)methyl)octahydropyrrolo[3,4-c]pyrrole-2-carbonyl)-1H-1,2,4-triazole-3-carbonitrile] | 1 to 10 | 1000 to 10000 |
| COc1ccc(C(c2ccc(OC)cc2)N2CCN(C(=O)n3nnc4cc(C#N)ccc43)CC2)cc1 [Example 89, 1-(4-(bis(4-methoxyphenyl)methyl)piperazine-1-carbonyl)-1H-benzo[d][1,2,3]triazole-5-carbonitrile] | 10 to 100 | 1000 to 10000 |
| NC(=O)c1cccc(-c2cccc(OC(=O)NC3CCCCC3)c2)c1 [URB597, reference compound] | > 50000 | – |
| O=C(OC(C(F)(F)F)C(F)(F)F)N1CCN(Cc2ccc(C(F)(F)F)cc2N2CCCC2)CC1 [ABX-1431] | – | > 50000 |
